System: HMEC cells
Test: microarray differential expression, HMEC cells treated with Aza
Format: cell-based, human
Conditions: vs untreated, log base 2, negative = upregulation
Method: HT29 cells were derived from a Grade II adenocarcinoma of the colon obtained from a person. HCT116 cells are a subpopulation of malignant cells isolated from a primary cell culture of a single human colonic carcinoma (Brattain et al. (1981) Cancer Res 41:1751-6). HMEC cells are a primary human epithelial cell line derived from the breast tissue of a normal donor. […] Treated cells were exposed to 500 nM 5-aza-2-deoxycytidine (Aza; Sigma-Aldrich) 24 hours after passage in complete culture medium. Control cultures were treated in parallel with phosphate buffered saline vehicle. After twenty-four hours, culture medium was replaced with drug-free medium. Control and Aza-treated cells were subcultured at equal densities at 1 and 5 days after the initial treatment, and proliferation was measured at the subsequent time point using a Coulter counter (Beckman Coulter, Fullerton Calif.). […]
Cells were harvested and lysed in 1 ml of TRIZOL reagent (5×10^6 cells/ml; Invitrogen). The lysates were vortexed thoroughly and incubated at room temperature for 2-3 minutes and extracted with 0.5 ml chloroform. The extract was mixed, incubated at room temperature for 5 minutes, and centrifuged at 16,000× g for 15 minutes at 4° C. The aqueous layer was collected, and an equal volume of isopropanol was added. Samples were mixed, incubated at room temperature for 10 minutes, and centrifuged at 16,000× g for 20 minutes at 4° C. The supernatant was removed, and the RNA pellet was washed with 1 ml of 70% ethanol, centrifuged at 16,000× g at 4° C., and resuspended in RNAse-free water. The concentration of the RNA was determined by measuring the optical density at 260 nm.
Poly(A) RNA was prepared using an OLIGOTEX mRNA kit (Qiagen) with the following modifications: OLIGOTEX beads were washed in tubes instead of on spin columns, resuspended in elution buffer, and then loaded onto spin columns to recover mRNA. To obtain maximum yield, the mRNA was eluted twice.
Each poly(A) RNA sample was reverse transcribed using MMLV reverse-transcriptase, 0.05 pg/μl oligo-d(T) primer (21mer), 1× first strand buffer, 0.03 units/ul RNAse inhibitor, 500 uM dAT?, 500 uM dGTP, 500 uM dTTP, 40 uM dCTP, and 40 uM either dCTP-Cy3 or dCTP-Cy5 (APB). The reverse transcription reaction was performed in a […] volume containing 200 ng poly(A) RNA using the GEMBRIGHT kit (Incyte Genomics). Specific control poly(A) RNAs (YCFRO6, YCFR45, YCFR67, YCFR85, YCFR43, YCFR22, YCFR23, YCFR25, YCFR44, YCFR26) were synthesized by in vitro transcription from non-coding yeast genomic DNA (W. Lei, unpublished). As quantitative controls, control mRNAs (YCFRO6, YCFR45, YCFR67, and YCFR85) at 0.002 ng, 0.02 ng, 0.2 ng, and 2 ng were diluted into reverse transcription reaction at ratios of 1:100,000, 1:10,000, 1:1000, 1:100 (w/w) to sample mRNA, respectively. To sample differential expression patterns, control mRNAs (YCFR43, YCFR22, YCFR23, YCFR25, YCFR44, YCFR26) were diluted into reverse transcription reaction at ratios of 1:3, 3:1, 1:10, 10:1, 1:25, 25:1 (w/w) to sample mRNA. Reactions were incubated at 37° C. for 2 hours, treated with […] of 0.5M sodium hydroxide, and incubated for 20 minutes at 85° C. to the stop the reaction and degrade the RNA.
cDNAs were purified using two successive CHROMA SPIN 30 gel filtration spin columns (Clontech). Cy3- and Cy5-labeled reaction samples were combined as described below and ethanol precipitated using […] of 100% ethanol. The cDNAs were then dried to completion using a SpeedVAC system (Savant Instruments, Holbrook N.Y.) and resuspended in 14 μl 5× SSC, 0.2% SDS.
Hybridization reactions contained 9 μl of sample mixture containing 0.2 μg each of Cy3 and CyS labeled cDNA synthesis products in 5× SSC, 0.2% SDS hybridization buffer. The mixture was heated to 65° C. for 5 minutes and was aliquoted onto the microarray surface and covered with an 1.8 cm^2 coverslip. […]

[1] = SEQ ID NO:33 cDNA clone YU62C03
[2] = SEQ ID NO:37, 38 MAGE-4b antigen
[3] = SEQ ID NO:49 phospholipid scramblase 1
[4] = SEQ ID NO:50 retinoid inducible gene 1
[5] = SEQ ID NO:51 interferon induced
[6] = SEQ ID NO:56 hepatitis C-associated microtubular aggregate
[7] = SEQ ID NO:58 Similar to keratin 7

Compound: Nc1ncn([C@H]2C[C@H](O)[C@@H](CO)O2)c(=O)n1 [Aza, 5-aza-2-deoxycytidine]
- differential expression, Clone ID 4764233, HMEC t/Aza (9d) (SEQ ID NO:30 GAGE-8): 0.00
- differential expression, Clone ID 2511379, HMEC t/Aza (4d) (SEQ ID NO:31 GAGE-7B): 0.32
- differential expression, Clone ID 2511379, HMEC t/Aza (9d) (SEQ ID NO:31 GAGE-7B): 0.32
- differential expression, Clone ID 2471817, HMEC t/Aza (4d) [1]: 0.07
- differential expression, Clone ID 2471817, HMEC t/Aza (9d) [1]: 0.00
- differential expression, Clone ID 3333736, HMEC t/Aza (4d) (SEQ ID NO:34 MAGE-11 antigen): 0.06
- differential expression, Clone ID 3333736, HMEC t/Aza (9d) (SEQ ID NO:34 MAGE-11 antigen): 0.00
- differential expression, Clone ID 1304365, HMEC t/Aza (4d) (SEQ ID NO:35 GAGE-8): 0.00
- differential expression, Clone ID 1304365, HMEC t/Aza (9d) (SEQ ID NO:35 GAGE-8): 0.00
- differential expression, Clone ID 2657056, HMEC t/Aza (4d) [2]: 0.13
- differential expression, Clone ID 2657056, HMEC t/Aza (9d) [2]: 0.00
- differential expression, Clone ID 2507719, HMEC t/Aza (4d) (SEQ ID NO:39 MAGE-9 antigen): −0.48
- differential expression, Clone ID 2507719, HMEC t/Aza (9d) (SEQ ID NO:39 MAGE-9 antigen): −0.24
- differential expression, Clone ID 4688, HMEC t/Aza (4d) (SEQ ID NO:41 MAGE-1): −0.13
- differential expression, Clone ID 4688, HMEC t/Aza (9d) (SEQ ID NO:41 MAGE-1): −0.13
- differential expression, Clone ID 2068708, HMEC t/Aza (4d) (SEQ ID NO:42 HM74): −0.50
- differential expression, Clone ID 2068708, HMEC t/Aza (9d) (SEQ ID NO:42 HM74): −0.24
- differential expression, Clone ID 23770, HMEC t/Aza (4d) (SEQ ID NO:43 1-8D): −0.48
- differential expression, Clone ID 23770, HMEC t/Aza (9d) (SEQ ID NO:43 1-8D): −0.63
- differential expression, Clone ID 1616783, HMEC t/Aza (4d) (SEQ ID NO:45 Incyte Unique): −0.53
- differential expression, Clone ID 1616783, HMEC t/Aza (9d) (SEQ ID NO:45 Incyte Unique): −0.20
- differential expression, Clone ID 820942, HMEC t/Aza (4d) (SEQ ID NO:46 cDNA FLJ20120): −0.48
- differential expression, Clone ID 820942, HMEC t/Aza (9d) (SEQ ID NO:46 cDNA FLJ20120): −0.20
- differential expression, Clone ID 891322, HMEC t/Aza (4d) (SEQ ID NO:47 Incyte Unique): 0.00
- differential expression, Clone ID 891322, HMEC t/Aza (9d) (SEQ ID NO:47 Incyte Unique): 0.00
- differential expression, Clone ID 2755836, HMEC t/Aza (4d) (SEQ ID NO:48 U5 A RNA): −0.26
- differential expression, Clone ID 2755836, HMEC t/Aza (9d) (SEQ ID NO:48 U5 A RNA): −0.31
- differential expression, Clone ID 1227521, HMEC t/Aza (4d) [3]: −0.19
- differential expression, Clone ID 1227521, HMEC t/Aza (9d) [3]: −0.63
- differential expression, Clone ID 2200842, HMEC t/Aza (4d) [4]: 0.00
- differential expression, Clone ID 2200842, HMEC t/Aza (9d) [4]: 0.00
- differential expression, Clone ID 2238363, HMEC t/Aza (4d) [5]: −0.50
- differential expression, Clone ID 2238363, HMEC t/Aza (9d) [5]: −0.29
- differential expression, Clone ID 1495382, HMEC t/Aza (4d) (SEQ ID NO:53 TRAIL): −0.48
- differential expression, Clone ID 1495382, HMEC t/Aza (9d) (SEQ ID NO:53 TRAIL): −0.19
- differential expression, Clone ID 1998269, HMEC t/Aza (4d) (SEQ ID NO:55 rhoB): −0.29
- differential expression, Clone ID 1998269, HMEC t/Aza (9d) (SEQ ID NO:55 rhoB): −0.68
- differential expression, Clone ID 1919287, HMEC t/Aza (4d) [6]: 0.00
- differential expression, Clone ID 1919287, HMEC t/Aza (9d) [6]: 0.00
- differential expression, Clone ID 2637446, HMEC t/Aza (4d) (SEQ ID NO:57 HE4 protein): 0.00
- differential expression, Clone ID 2637446, HMEC t/Aza (9d) (SEQ ID NO:57 HE4 protein): 0.00
- differential expression, Clone ID 1962141, HMEC t/Aza (4d) [7]: 0.00
- differential expression, Clone ID 1962141, HMEC t/Aza (9d) [7]: −0.07
- differential expression, Clone ID 4933404, HMEC t/Aza (4d) (SEQ ID NO:60 Incyte Unique): 0.96
- differential expression, Clone ID 4933404, HMEC t/Aza (9d) (SEQ ID NO:60 Incyte Unique): 0.48
- differential expression, Clone ID 2150288, HMEC t/Aza (4d) (SEQ ID NO:61 Keratin 8): −0.67
- differential expression, Clone ID 2150288, HMEC t/Aza (9d) (SEQ ID NO:61 Keratin 8): −0.42
- differential expression, Clone ID 2697455, HMEC t/Aza (4d) (SEQ ID NO:61 Keratin 8): −0.63
- differential expression, Clone ID 2697455, HMEC t/Aza (9d) (SEQ ID NO:61 Keratin 8): −0.37

Source: patent US20030013099A1, “Genes regulated by DNA methylation in colon tumors” (priority 2001, published 2003)
